Source: BigSolDB 2.1

Details: in chloroform

Brc1sc(Br)c(Br)c1Br
Details | solubility (mole fraction)
278.15 K | 0.0198
282.15 K | 0.0231
286.15 K | 0.0265
290.15 K | 0.0304
294.15 K | 0.0349
298.15 K | 0.0401
302.15 K | 0.0458
306.15 K | 0.0517
310.15 K | 0.0588
314.15 K | 0.066
318.15 K | 0.0745
322.15 K | 0.0828
